Experimental data: patent US20230212549A1, “COMPOUNDS COMPRISING A […] LIGAND AND USE THEREOF” (priority 2021, published 2023)
Numbered stars: 1 amine (or outer) side, 2 acyl side, 3 side chain; on linkers, the order of the positions; unused ones are H or OH. Bridge positions count the residues as written; N and C are the ends. Square brackets hold non-standard residues; d marks the D form. Peptide text beside a SMILES is read from it. * marks the point of attachment. DOTA = O=C(O)CN1CCN(CC(=O)O)CCN(CC(=O)*)CCN(CC(=O)O)CC1; Pro(trans-4-Ph) = O=C(O)[C@@H]1C[C@@H](c2ccccc2)CN1; Pro(trans-4-F) = O=C(O)[C@@H]1C[C@@H](F)CN1; Oic = O=C(O)[C@@H]1C[C@@H]2CCCC[C@@H]2N1; Met(O2) = CS(=O)(=O)CC[C@H](N)C(=O)O; mXylylene = c1cc(C[*:1])cc(C[*:2])c1; Pyrazinecarbonyl = O=C(c1cnccn1)*; NMeF = CN[C@@H](Cc1ccccc1)C(=O)O; 2Thi = N[C@@H](Cc1cccs1)C(=O)O; Pen = CC(C)(S)[C@H](N)C(=O)O; Orn = NCCC[C@H](N)C(=O)O; Hexanoyl = CCCCCC(=O)*; AEEA = NCCOCCOCC(=O)O; Aib = CC(C)(N)C(=O)O; Inp = O=C(O)C1CCNCC1; Ahx = NCCCCCC(=O)O; βAla = NCCC(=O)O; Sar = CNCC(=O)O

Assays:
Human recombinant FAP = Human recombinant FAP (Homo sapiens, UniProt Q12884); assay: FRET-based FAP protease activity assay; type: biochemical; parameters: purchased R&D systems 3715-SE; conditions: pIC50 Category (Activity), FRET-based FAP protease activity assay, recombinant human FAP, 37° C.
Chain of Human recombinant FAP (Q12884 whole entry): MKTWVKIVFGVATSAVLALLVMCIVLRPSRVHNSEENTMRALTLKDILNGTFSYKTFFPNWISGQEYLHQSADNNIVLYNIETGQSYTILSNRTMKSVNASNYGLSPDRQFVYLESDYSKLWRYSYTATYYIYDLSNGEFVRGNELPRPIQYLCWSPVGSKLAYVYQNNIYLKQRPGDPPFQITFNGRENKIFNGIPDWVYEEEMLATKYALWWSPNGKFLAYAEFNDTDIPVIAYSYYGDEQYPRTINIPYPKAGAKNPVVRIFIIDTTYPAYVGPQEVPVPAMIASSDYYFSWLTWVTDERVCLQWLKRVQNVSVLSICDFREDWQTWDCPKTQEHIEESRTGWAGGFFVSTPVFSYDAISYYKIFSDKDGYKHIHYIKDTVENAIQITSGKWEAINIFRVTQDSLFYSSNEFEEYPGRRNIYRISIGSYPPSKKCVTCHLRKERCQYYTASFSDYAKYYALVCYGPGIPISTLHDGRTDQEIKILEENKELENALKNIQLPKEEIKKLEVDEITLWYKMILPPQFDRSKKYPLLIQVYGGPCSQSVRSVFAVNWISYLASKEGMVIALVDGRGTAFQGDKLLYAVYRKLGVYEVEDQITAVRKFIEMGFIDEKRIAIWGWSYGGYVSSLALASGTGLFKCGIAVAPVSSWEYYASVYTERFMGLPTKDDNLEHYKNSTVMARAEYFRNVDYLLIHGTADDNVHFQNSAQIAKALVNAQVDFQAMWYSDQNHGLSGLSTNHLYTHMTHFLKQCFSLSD

[1] = target: T1, FAP-expressing human WI-38 fibroblasts (Homo sapiens, UniProt Q12884); assay: Competitive FACS binding assay
T1 construct: FAP-expressing human WI-38 fibroblasts (ECACC) were cultured in EMEM; host or cells: WI-38 human fibroblasts
T1 sequence (Q12884 whole entry): as above
Procedure: Cells were analyzed in an Attune NxT flow cytometer. […] […].
Cells were analyzed in an Attune NxT flow cytometer. […]

SMILES | IC50 (Human recombinant FAP) [µM] | IC50 [1] [µM]
CSCC[C@H](NC(C)=O)C(=O)N[C@@H]1CSCc2cccc(c2)CSC[C@@H](C(=O)N[C@@H](CC(=O)O)C(=O)N[C@@H](Cc2c[nH]cn2)C(=O)N[C@@H](Cc2ccccc2)C(=O)N[C@@H](CCCNC(=N)N)C(=O)N[C@@H](CC(=O)O)C(N)=O)NC(=O)[C@H](Cc2ccccc2)NC(=O)[C@H](CCC(=O)O)NC(=O)[C@H]([C@@H](C)O)NC(=O)[C@@H]2CCCN2C(=O)[C@@H]2CCCN2C1=O [3BP-3175, Ac-Met-[cys(3MeBn)-Pro-Pro-Thr-Glu-Phe-Cys]-Asp-His-Phe-Arg-Asp-NH2] (Ac-M[dC]PPTEFCDHFRD-NH2; linker 2-8 via mXylylene) | < 0.01 | < 0.01
CSCC[C@H](NC(C)=O)C(=O)N[C@H]1CSCc2cccc(c2)CSC[C@@H](C(=O)N[C@@H](CC(=O)O)C(=O)N[C@@H](Cc2c[nH]cn2)C(=O)N[C@@H](Cc2ccccc2)C(=O)N[C@@H](CCCNC(=N)N)C(=O)N[C@@H](CC(=O)O)C(N)=O)NC(=O)[C@H](Cc2cccs2)NC(=O)[C@H](CCC(=O)O)NC(=O)[C@H]([C@@H](C)O)NC(=O)[C@@H]2CCCN2C(=O)[C@@H]2CCCN2C1=O [3BP-3193, Ac-Met-[Cys(3MeBn)-Pro-Pro-Thr-Glu-Thi-Cys]-Asp-His-Phe-Arg-Asp-NH2] (Ac-MCPPTE[2Thi]CDHFRD-NH2; linker 2-8 via mXylylene) | < 0.01 | < 0.01
CSCC[C@H](NC(C)=O)C(=O)N[C@H]1CSCc2cccc(c2)CSC[C@@H](C(=O)N[C@@H](CC(=O)O)C(=O)N[C@@H](Cc2c[nH]cn2)C(=O)N[C@@H](Cc2ccccc2)C(=O)N[C@@H](CCCNC(=N)N)C(=O)N[C@@H](CC(=O)O)C(N)=O)NC(=O)[C@H](Cc2ccccc2)NC(=O)[C@H](CCC(=O)O)NC(=O)[C@H]([C@@H](C)O)NC(=O)[C@@H]2CCCN2C(=O)C(C)(C)NC1=O [3BP-3204, Ac-Met-[Cys(3MeBn)-Aib-Pro-Thr-Glu-Phe-Cys]-Asp-His-Phe-Arg-Asp-NH2] (Ac-MC[Aib]PTEFCDHFRD-NH2; linker 2-8 via mXylylene) | 0.01 to 0.0794 | 0.01 to 0.0794
CSCC[C@H](NC(C)=O)C(=O)N[C@H]1CSCc2cccc(c2)CSC[C@@H](C(=O)N[C@@H](CC(=O)O)C(=O)N[C@@H](Cc2c[nH]cn2)C(=O)N[C@@H](Cc2ccccc2)C(=O)N[C@@H](CCCNC(=N)N)C(=O)N[C@@H](CC(=O)O)C(N)=O)NC(=O)[C@H](Cc2ccccc2)NC(=O)[C@H](CCC(=O)O)NC(=O)[C@H]([C@@H](C)O)NC(=O)[C@@H]2CCCN2C(=O)[C@@H]2C[C@@H]3CCCC[C@@H]3N2C1=O [3BP-3216, Ac-Met-[Cys(3MeBn)-Oic-Pro-Thr-Glu-Phe-Cys]-Asp-His-Phe-Arg-Asp-NH2] (Ac-MC[Oic]PTEFCDHFRD-NH2; linker 2-8 via mXylylene) | 0.1 to 0.794 | 0.1 to 0.794
CSCC[C@H](NC(C)=O)C(=O)N[C@H]1CSCc2cccc(c2)CSC[C@@H](C(=O)N[C@@H](CC(=O)O)C(=O)N[C@@H](Cc2c[nH]cn2)C(=O)N[C@@H](Cc2ccccc2)C(=O)N[C@@H](CCCNC(=N)N)C(=O)N[C@@H](CC(=O)O)C(N)=O)NC(=O)[C@H](Cc2ccccc2)NC(=O)[C@H](CCC(=O)O)NC(=O)[C@H]([C@@H](C)O)NC(=O)[C@@H]2C[C@@H]3CCCC[C@@H]3N2C(=O)[C@@H]2CCCN2C1=O [3BP-3217, Ac-Met-[Cys(3MeBn)-Pro-Oic-Thr-Glu-Phe-Cys]-Asp-His-Phe-Arg-Asp-NH2] (Ac-MCP[Oic]TEFCDHFRD-NH2; linker 2-8 via mXylylene) | 0.1 to 0.794 | 0.1 to 0.794
C[C@@H](O)[C@@H]1NC(=O)[C@@H]2CCCN2C(=O)[C@@H]2CCCN2C(=O)[C@@H](NC(=O)CCNC(=O)CN2CCN(CC(=O)O)CCN(CC(=O)O)CCN(CC(=O)O)CC2)CSCc2cccc(c2)CSC[C@@H](C(=O)N[C@@H](CC(=O)O)C(=O)N[C@@H](Cc2c[nH]cn2)C(=O)N(C)[C@@H](Cc2ccccc2)C(=O)N[C@@H](CCCNC(=N)N)C(=O)N[C@@H](CC(=O)O)C(N)=O)NC(=O)[C@H](Cc2ccccc2)NC(=O)[C@H](CCC(=O)O)NC1=O [3BP-3264, DOTA-Bal-[Cys(3MeBn)-Pro-Pro-Thr-Glu-Phe-Cys]-Asp-His-Nmf-Arg-Asp-NH2] ({DOTA-βAla}-CPPTEFCDH[NMeF]RD-NH2; linker 1-7 via mXylylene) | 0.01 to 0.0794 | 0.01 to 0.0794
C[C@@H](O)[C@@H]1NC(=O)[C@@H]2CCCN2C(=O)[C@@H]2CCCN2C(=O)[C@@H](NC(=O)C2CCN(C(=O)CN3CCN(CC(=O)O)CCN(CC(=O)O)CCN(CC(=O)O)CC3)CC2)CSCc2cccc(c2)CSC[C@@H](C(=O)N[C@@H](CC(=O)O)C(=O)N[C@@H](Cc2c[nH]cn2)C(=O)N(C)[C@@H](Cc2ccccc2)C(=O)N[C@@H](CCCNC(=N)N)C(=O)N[C@@H](CC(=O)O)C(N)=O)NC(=O)[C@H](Cc2ccccc2)NC(=O)[C@H](CCC(=O)O)NC1=O [3BP-3265, DOTA-Inp-[Cys(3MeBn)-Pro-Pro-Thr-Glu-Phe-Cys]-Asp-His-Nmf-Arg-Asp-NH2] ({DOTA-Inp}-CPPTEFCDH[NMeF]RD-NH2; linker 1-7 via mXylylene) | 0.1 to 0.794 | 0.1 to 0.794
C[C@@H](O)[C@@H]1NC(=O)[C@@H]2CCCN2C(=O)[C@@H]2CCCN2C(=O)[C@@H](NC(=O)CCCCCNC(=O)CN2CCN(CC(=O)O)CCN(CC(=O)O)CCN(CC(=O)O)CC2)CSCc2cccc(c2)CSC[C@@H](C(=O)N[C@@H](CC(=O)O)C(=O)N[C@@H](Cc2c[nH]cn2)C(=O)N(C)[C@@H](Cc2ccccc2)C(=O)N[C@@H](CCCNC(=N)N)C(=O)N[C@@H](CC(=O)O)C(N)=O)NC(=O)[C@H](Cc2ccccc2)NC(=O)[C@H](CCC(=O)O)NC1=O [3BP-3266, DOTA-Ahx-[Cys(3MeBn)-Pro-Pro-Thr-Glu-Phe-Cys]-Asp-His-Nmf-Arg-Asp-NH2] ({DOTA-Ahx}-CPPTEFCDH[NMeF]RD-NH2; linker 1-7 via mXylylene) | 0.1 to 0.794 | 0.1 to 0.794
C[C@@H](O)[C@@H]1NC(=O)[C@@H]2CCCN2C(=O)[C@@H]2CCCN2C(=O)[C@@H](NC(=O)COCCOCCNC(=O)CN2CCN(CC(=O)O)CCN(CC(=O)O)CCN(CC(=O)O)CC2)CSCc2cccc(c2)CSC[C@@H](C(=O)N[C@@H](CC(=O)O)C(=O)N[C@@H](Cc2c[nH]cn2)C(=O)N(C)[C@@H](Cc2ccccc2)C(=O)N[C@@H](CCCNC(=N)N)C(=O)N[C@@H](CC(=O)O)C(N)=O)NC(=O)[C@H](Cc2ccccc2)NC(=O)[C@H](CCC(=O)O)NC1=O [3BP-3267, DOTA-O2Oc-[Cys(3MeBn)-Pro-Pro-Thr-Glu-Phe-Cys]-Asp-His-Nmf-Arg-Asp-NH2] ({DOTA-AEEA}-CPPTEFCDH[NMeF]RD-NH2; linker 1-7 via mXylylene) | 0.1 to 0.794 | 0.1 to 0.794
CCCCCC(=O)N[C@H]1CSCc2cccc(c2)CSC[C@@H](C(=O)N[C@@H](CC(=O)O)C(=O)N[C@@H](CCCNC(=N)N)C(N)=O)NC(=O)[C@H](Cc2ccccc2)NC(=O)[C@H](CCC(=O)O)NC(=O)[C@H]([C@@H](C)O)NC(=O)[C@@H]2CCCN2C(=O)[C@@H]2CCCN2C1=O [3BP-3299, Hex-[Cys(3MeBn)-Pro-Pro-Thr-Glu-Phe-Cys]-Asp-Arg-NH2] (Hexanoyl-CPPTEFCDR-NH2; linker 1-7 via mXylylene) | < 0.01 | < 0.01
CCCCCC(=O)N[C@H]1CSCc2cccc(c2)CSC[C@@H](C(N)=O)NC(=O)[C@H](Cc2ccccc2)NC(=O)[C@H](CCC(=O)O)NC(=O)[C@H]([C@@H](C)O)NC(=O)[C@@H]2CCCN2C(=O)CN(C)C1=O [3BP-3347, Hex-[Cys(3MeBn)-Nmg-Pro-Thr-Glu-Phe-Cys]-NH2] (Hexanoyl-C[Sar]PTEFC-NH2; linker 1-7 via mXylylene) | 0.01 to 0.0794 | 0.1 to 0.794
CCCCCC(=O)N[C@H]1CSCc2cccc(c2)CSC(C)(C)[C@@H](C(N)=O)NC(=O)[C@H](Cc2ccccc2)NC(=O)[C@H](CCC(=O)O)NC(=O)[C@H]([C@@H](C)O)NC(=O)[C@@H]2CCCN2C(=O)[C@@H]2CCCN2C1=O [3BP-3351, Hex-[Cys(3MeBn)-Pro-Pro-Thr-Glu-Phe-Pen]-NH2] (Hexanoyl-CPPTEF[Pen]-NH2; linker 1-7 via mXylylene) | 0.1 to 0.794 | > 1
CCCCCC(=O)N[C@H]1CSCc2cccc(c2)CSC[C@@H](C(N)=O)NC(=O)[C@H](Cc2ccccc2)NC(=O)[C@H](CCC(=O)O)NC(=O)[C@H]([C@@H](C)O)NC(=O)[C@@H]2C[C@@H](F)CN2C(=O)[C@@H]2CCCN2C1=O [3BP-3352, Hex-[Cys(3MeBn)-Pro-4Tfp-Thr-Glu-Phe-Cys]-NH2] (Hexanoyl-CP[Pro(trans-4-F)]TEFC-NH2; linker 1-7 via mXylylene) | 0.01 to 0.0794 | 0.1 to 0.794
CCCCCC(=O)N[C@H]1CSCc2cccc(c2)CSC[C@@H](C(N)=O)NC(=O)[C@H](Cc2ccccc2)NC(=O)[C@H](CCC(=O)O)NC(=O)[C@H]([C@@H](C)O)NC(=O)[C@@H]2C[C@@H](c3ccccc3)CN2C(=O)[C@@H]2CCCN2C1=O [3BP-3353, Hex-[Cys(3MeBn)-Pro-Eay-Thr-Glu-Phe-Cys]-NH2] (Hexanoyl-CP[Pro(trans-4-Ph)]TEFC-NH2; linker 1-7 via mXylylene) | 0.1 to 0.794 | > 1
CCCCCC(=O)N[C@H]1CSCc2cccc(c2)CSC[C@@H](C(N)=O)NC(=O)[C@H](Cc2ccccc2)NC(=O)[C@H](CCC(=O)O)NC(=O)[C@H](CCCNC(=O)c2cnccn2)NC(=O)[C@@H]2CCCN2C(=O)[C@@H]2CCCN2C1=O [3BP-3355, Hex-[Cys(3MeBn)-Pro-Pro-Opc-Glu-Phe-Cys]-NH2] (Hexanoyl-CPP[Orn](Pyrazinecarbonyl)EFC-NH2; linker 1-7 via mXylylene) | 0.1 to 0.794 | > 1
CCCCCC(=O)N[C@H]1CSCc2cccc(c2)CSC[C@@H](C(N)=O)NC(=O)[C@H](Cc2ccccc2)NC(=O)[C@H](CCS(C)(=O)=O)NC(=O)[C@H]([C@@H](C)O)NC(=O)[C@@H]2CCCN2C(=O)[C@@H]2CCCN2C1=O [3BP-3356, Hex-[Cys(3MeBn)-Pro-Pro-Thr-Moo-Phe-Cys]-NH2] (Hexanoyl-CPPT[Met(O2)]FC-NH2; linker 1-7 via mXylylene) | > 1 | > 1
